Results published in patent EP0531640B1, “Antibiotic LL-E19020 Gamma” (F. HOFFMANN-LA ROCHE AG, priority 1991, dated 1993).
Converted amounts (≈) assume the structure as drawn.

Tests used:
[1] = In vivo toxicity in uninfected mice; conditions: uninfected mice
Experimental: (§1) The in vivo antibacterial activity of antibiotic LL-E19020 Gamma is established by infecting female CD-1 mice from Charles River Laboratories, weighing 20±2 g each, intraperitoneally with either 2.0 X 10^2 CFU/0.5 ml Streptococcus pyogenes C203 suspended in broth or 2.8 X 10^6 CFU/0.5 ml Straphylococcus aureus Smith suspended in 5% hog gastric mucin. The mice were treated subcutaneously, 30 minutes after infection with the indicated dose of the test compound in 0.5 ml of 0.2% aqueous agar. Toxicity studies were performed administering the same treatment to uninfected mice.

[2] = Growth of chickens and efficiency of feed utilization; format: in vivo, Peterson X Arbor Acres chicks; conditions: 25 ppm in the diet
Experimental: In this test, one day old Peterson X Arbor Acres chicks are sorted into equal weight groups of 5 males and 5 females per cage. Cages are randomized to treatment groups with six replicates per treatment. The test compound is evaluated 25 ppm in the diet against chicks receiving a non-medicated diet and a diet containing 200 ppm of penicillin as a positive control.
The cages are weighed at day 1 and at day 14 and feed consumption is measured on weigh days. Feed and water are offered ad libitum and lighting and supplemental heat are provided continuously.
The poultry diet employed in the test is as follows:
The vitamin-amino acid premix in the above feed composition is prepared from the following formulation. The expressions of quantity relate to units per kilogram of the finished feed composition.

[3] = test system: staphylococci and enterococci; assay: MIC by agar dilution, summary for staphylococci and enterococci; format: cell-based; conditions: 18 h; text summary: poor to moderate activity vs staphylococci and enterococci
Experimental: (§2) The in vitro antibacterial activity of LL-E19020 Gamma is determined against a spectrum of gram positive and gram negative bacteria by a standard agar dilution method. Mueller-Hinton agar containing 5% sheep blood and two-fold decreasing concentrations of LL-E19020 Gamma is poured into petri dishes. The agar surfaces are inoculated with 1 to 5X10^4 colony forming units of bacteria by means of the Steers replicating device. The lowest concentration of antibiotic that inhibits growth of a bacterial strain after 18 hours incubation is recorded as the minimal inhibitory concentration for that strain.
(§3) • 1. Serial two-flow dilutions of drug are prepared in Mueller-Hinton broth in a range of 2560 µg/ml-0.15 µg/ml plus a solvent control. • 2. Two milliliters of drug dilution (10X) are added to sterile screw cap bottles to which 18 ml of Mueller-Hinton agar containing 5.6% defibrinated sheep blood is added. Final drug concentration ranges 256 µg/ml-0.015 µg/ml in agar containing 5% sheep blood. • 3. A few isolated colonies of each test organism are inoculated into 5 ml trypticase soy broth or brain heart infusion broth. The cultures are shaken at 35 °C. for 5 hours. • 4. Each culture is diluted 1:50 (10^-1.7) in Mueller-Hinton broth and applied to agar plates using a Steers replicator. Control plates should be seeded last to ensure that viable organisms are present throughout the procedure. […]

[4] = test system: Staphylococcus aureus Smith; assay: In vivo antibacterial activity, acute lethal infection in mice; conditions: for Survival Ratio 7 Days After Infection With S. aureus Smith: mice, 30 minutes after infection
Experimental: as §1

[5] = test system: Streptococcus pyogenes C203; assay: as above; conditions: for Survival Ratio 7 Days After Infection With S. pyogenes C203: mice, 30 minutes after infection
Experimental: as §1

[6] = test system: non-enterococcal streptococci; assay: MIC by agar dilution, summary for non-enterococcal streptococci; format: cell-based; conditions: 18 h; text summary: relatively good activity against non-enterococcal streptococci
Experimental: as §2, §3

[7] = Single Subcutaneous Dose 0.5 MG/KG
[8] = Single Subcutaneous Dose 1 MG/KG
[9] = Single Subcutaneous Dose 2 MG/KG
[10] = Single Subcutaneous Dose 4 MG/KG
[11] = Single Subcutaneous Dose 8 MG/KG
[12] = Single Subcutaneous Dose 16 MG/KG

C/C=C\C=C\C1OC(O)(C(COC2CC(OC)C(OC3CC(OC)C(OC4CC(OC)C(O)C(C)O4)C(C)O3)C(C)O2)C(=O)NC/C=C/C=C(\C)C(OC)C(C)C2CC(O)C(/C=C/C=C/C=C/C(=O)O)O2)C(OC(=O)Cc2ccc(O)cc2)C(O)C1(C)C (centres unmarked) [LL-E19020 Gamma]
In Vivo Toxicity: Survival Ratio 7 Days After Administration Of Single Subcutaneous Dose ([1]; 0.5 MG/KG): 2/2 | In Vivo Toxicity: Survival Ratio 7 Days After Administration Of Single Subcutaneous Dose ([1]; 1 MG/KG): 2/2 | In Vivo Toxicity: Survival Ratio 7 Days After Administration Of Single Subcutaneous Dose ([1]; 2 MG/KG): 2/2 | In Vivo Toxicity: Survival Ratio 7 Days After Administration Of Single Subcutaneous Dose ([1]; 4 MG/KG): 2/2 | In Vivo Toxicity: Survival Ratio 7 Days After Administration Of Single Subcutaneous Dose ([1]; 8 MG/KG): 2/2 | In Vivo Toxicity: Survival Ratio 7 Days After Administration Of Single Subcutaneous Dose ([1]; 16 MG/KG): 2/2 | In Vivo Toxicity: Survival Ratio 7 Days After Administration Of Single Subcutaneous Dose ([1]; 32 MG/KG): 2/2 | In Vivo Toxicity: Survival Ratio 7 Days After Administration Of Single Subcutaneous Dose ([1]; 64 MG/KG): 2/2 | Weight Gain ([2]; chicks, day 1 to day 14): 342 g | Weight Gain, % improvement over control ([2]; chicks, day 1 to day 14): 6.5% | feed conversion ([2]; chicks, day 1 to day 14): 1.297 | feed conversion, % improvement over control ([2]; chicks, day 1 to day 14): 1.9% | efficiency of feed utilization, result in words ([2]; over unmedicated controls): increased the efficiency of feed utilization | weight gain of chicks, result in words ([2]; over unmedicated controls): improved weight gain of chicks | MIC [3]: 8 to 128 µg/mL (≈ 6.44 to 103 µM) | Survival Ratio 7 Days After Infection With S. aureus Smith [4, 7]: 0/5 | Survival Ratio 7 Days After Infection With S. aureus Smith [4, 8]: 0/5 | Survival Ratio 7 Days After Infection With S. aureus Smith [4, 9]: 0/5 | Survival Ratio 7 Days After Infection With S. aureus Smith [4, 10]: 0/5 | Survival Ratio 7 Days After Infection With S. aureus Smith [4, 11]: 0/5 | Survival Ratio 7 Days After Infection With S. aureus Smith [4, 12]: 0/5 | Survival Ratio 7 Days After Infection With S. aureus Smith ([4]; Single Subcutaneous Dose 32 MG/KG): 0/5 | Survival Ratio 7 Days After Infection With S. aureus Smith ([4]; Single Subcutaneous Dose 64 MG/KG): 0/5 | ED50 ([4]; sc, acute lethal infection in mice, Staphylococcus aureus Smith, single subcutaneous dose, read-out: approximate ED50): > 64 mg/kg | Survival Ratio 7 Days After Infection With S. pyogenes C203 [5, 7]: 0/5 | Survival Ratio 7 Days After Infection With S. pyogenes C203 [5, 8]: 0/5 | Survival Ratio 7 Days After Infection With S. pyogenes C203 [5, 9]: 0/5 | Survival Ratio 7 Days After Infection With S. pyogenes C203 [5, 10]: 1/5 | Survival Ratio 7 Days After Infection With S. pyogenes C203 [5, 11]: 3/5 | Survival Ratio 7 Days After Infection With S. pyogenes C203 [5, 12]: 4/5 | ED50 ([5]; sc, acute lethal infection in mice, Streptococcus pyogenes C203, single subcutaneous dose, read-out: approximate ED50): 4 to 8 mg/kg | MIC [6]: 0.12 to 16 µg/mL (≈ 0.0966 to 12.9 µM)
